In data set [1] the test system is Fusobacterium necrophorum. Kind of data set: Bacterial evaluation of hoof lesion samples (culture, biochemical tests and PCR) before treatment and on Day 7. It is filed as in vivo. The settings on record: Day 0 vs Day 7, in comparison to the control group.
Description: On Day 0, before treatment, bacteriological samples were collected from the infected hooves of the enrolled cattle. Lesions and lameness were also assessed on Days 2, 4 and 7. Treatment success, improvement, or failure was determined on Day 7 and was based on lameness and lesion score compared to Day 0. On Day 7, another bacteriological sample was collected from all animals. Bacteriological samples were collected on a sterile scraper and on a sterile swab from the border of healthy and necrotic tissue (around the hoof lesion) of the infected hooves of the enrolled cattle. The tip of the scraper, containing discharge from the lesions, was fractured off into 15 ml tubes containing 7 ml of a semi solid transport media formulated exclusively to anaerobic bacteria and the swab was discharged in a semi solid transport. The tubes were kept under refrigeration (4 to 8° C.) until they arrive into the laboratory. At the laboratory, the samples grew in culture media appropriated to F. necrophorum and Dichelobacter nodosus isolation. Isolates were identified using confirmatory biochemical tests and polymerase chain reaction (PCR) specific to F. necrophorum and D. nodosus species.
Data set [2] is described as follows: Health observations and adverse events in the foot rot study. It is filed as in vivo, bovine animals. The protocol: (§1) Thirty animals were enrolled to the Control Group and another thirty animals were enrolled in the Tildipirosin treated Group. The tildipirosin-treated group received a single dose, subcutaneously, while the control group was treated with a saline sterile solution. Both groups (treated and control) were housed in the same paddocks under typical Brazilian feedlot conditions.

The subject of data set [3] is naturally occurring foot rot. Briefly: Efficacy of a single subcutaneous dose against naturally occurring foot rot in feedlot cattle (lameness and lesion scoring). The settings on record: for average lameness score: score guide 1-5 (Table 1); for average lesion score: score guide 1-5 (Table 2). It is filed as in vivo, bovine animals. Here is the method: as §1
Sixty animals were included in the trial in two different phases, according to the number of available animals that fulfill the inclusion criteria. The study was masked. […] The animals were randomized and evenly distributed across the treatment groups according to 15 blocks of 2 animals each in both inclusion dates (there were 2 inclusion dates, for a total of 60 animals).
The effectiveness of tildipirosin for the treatment of foot rot was evaluated by comparing the proportion of treatment success/improvement in the tildipirosin-treated group to the saline-treated control group on Day 7.
The lameness and the lesion scoring are described in Tables 1 and 2 below.
The animals' lesion and lameness score were assessed by the investigator on Days −1 and 0 of the study. To qualify for the effectiveness portion of the study, animals were diagnosed with foot rot by meeting the following criteria: • Lameness Score 3 in at least one foot for 2 consecutive days. • Lesion Score 2 in at least one foot for 2 consecutive days. • Clinically healthy (excepting lameness) • Body weight (348-499 kg body weight) • Age (20-24 months)
On Day 0, before treatment, bacteriological samples were collected from the infected hooves of the enrolled cattle. Lesions and lameness were also assessed on Days 2, 4 and 7. Treatment success, improvement, or failure was determined on Day 7 and was based on lameness and lesion score compared to Day 0. On Day 7, another bacteriological sample was collected from all animals.

[4] abbreviates: Day 0, before treatment, treated group.
[5] abbreviates: Day 7 after single subcutaneous dose of 4 mg/kg BW.

Here are results for one compound from patent US20240000820A1, “A METHOD OF TREATING FOOT ROT” (Intervet Inc., priority 2020, published 2024).

For `CC[C@H]1OC(=O)C[C@@H](O)[C@H](C)[C@@H](O[C@@H]2O[C@H](C)[C@@H](O)[C@H](N(C)C)[C@H]2O)[C@@H](CCN2CCCCC2)C[C@@H](C)C(=O)/C=C/C(C)=C/[C@@H]1CN1CCCCC1` [tildipirosin, (4R,5S,6S,7R,9R,11E,13E,15R,16R)-6-[(2R,3R,4S,5S,6R)-4-(dimethylamino)-3,5-dihydroxy-6-methyloxan-2-yl]oxy-16-ethyl-4-hydroxy-5,9,13-trimethyl-7-(2-piperidin-1-ylethyl)-15-(piperidin-1-ylmethyl)-1-oxacyclohexadeca-11,13-diene-2,10-dione], the “bacterial evaluation (PCR identification of Fusobacterium necrophorum before vs after treatment)” value in data set [1] is “not conclusive”. For the same compound, in data set [2] (before or after treatment, single subcutaneous dose 4 mg/kg BW), the abnormal health observations result is recorded as “no abnormal health observations”. In data set [2] (tildipirosin-treated group, according to the investigator), the “adverse event (broken toenail on Day 7, one animal), relation to treatment” value is given as “not related to the tildipirosin treatment”. Further, in data set [3] (setting [4]), the average lameness score came out at 3.1 and the average lesion score worked out at 2.3. Further, in data set [3] (setting [5]), the average lameness score was 1.3 and the average lesion score is 1.9. Also, the “treatment of naturally occurring foot rot” value in data set [3] (single subcutaneous dose of 4 mg of tildipirosin per kg BW) was “effectively treat”.
